# Literature values as cited in patent EP0307115A1, “Phenol esters” (IMPERIAL CHEMICAL INDUSTRIES PLC, priority 1987, dated 1989).
# Settings: dosed orally in man
smiles,measurement,value
"O=C(NCCNCC(O)COc1ccc(O)cc1)N1CCOCC1 (racemic) [xamoterol, N-(2-[(RS)-2-hydroxy-3-(4-hydroxyphenoxy)-propylamino]ethyl)morpholine-4-carboxamide]","absorbed from the gastrointestinal tract, extent of the administered dose",9-10%
